Assay results reported in patent publication US11136547B2, “Mesoderm induction method having high blood cell differentiation capacity” (Kyoto University, priority 2016, dated 2021).
Entries after “also recorded” stand apart in the source; their conditions may differ.

B1: NOGGIN: physiological BMP antagonist (protein, UniProt Q13253 28-232, looked up)
Noggin: QHYLHIRPAPSDNLPLVDLIEHPDPIFDPKEKDLNETLLRSLLGGHYDPGFMATSPPEDRPGGGGGAAGGAEDLAELDQLLRQRPSGAMPSEIKGLEFSEGLAQGKKQRLSKKLRRKLQMWLWSQTFCPVLYAWNDLGSRFWPRYVKVGSCFSKRSCSVPEGMVCKPSKSVHLTVLRWRCQRRGGQRCGWIPIQYPIISECKCSC

Experiments:
KhES3 and H1 cells [1] = experiment: Intermediate step intervention in C3H10T1/2 co-culture: occurrence of CD43+ blood cells on day 10; type: cell-based, human; settings: factor added in intermediate step days 4 to 7, in the presence of VEGF; compared with control/DMSO group; n=3
Method: (§1) Human ES cells that had been maintenance cultured in MEF were detached from the bottom of the dish in colony form as at the time of passage, and seeded on an inactivated C3H10T1/2 dish that had been prepared the previous day. The seeding rate was roughly 5×10^4 to 2×10^5 cells per 10-cm dish, although this is an estimate because the cells could not be counted. The medium was blood cell differentiation medium to which VEGF had been added to a final concentration of 20 ng/mL. Single cells were collected using 0.05% trypsin EDTA as necessary, the cells were counted, Y27632 was added to […], and the cells were differentiated as single cells.
When analyzing cells during differentiation, the culture supernatant was removed, the cells were washed twice with PBS, and 2 mL/dish of 0.25% trypsin EDTA was added and incubated for 5 minutes at 37° C. […] Blood cell differentiation medium was added to stop the reaction, and after centrifugation and removal of the supernatant, the cells were suspended in the necessary medium and analyzed.
(§2) Cells in a single-cell state were prepared as necessary, and fluorescent labeled antibodies were also included as necessary in amounts matching the cell numbers. […] These were then diluted with SM and centrifuged, the supernatant was removed, and the cells were suspended in the necessary amount of SMPI and analyzed. […]

KhES3 and H1 cells [2] = experiment: Initial step intervention in C3H10T1/2 co-culture: occurrence of CD56+APJ+ mesodermal cells on day 4 (flow cytometry); type: cell-based, human; settings: factor added on days 0 to 4; co-culture with C3H10T1/2; compared with control group; n=3
Method: as §1
When analyzing cells during differentiation, the culture supernatant was removed, the cells were washed twice with PBS, and 2 mL/dish of 0.25% trypsin EDTA was added and incubated for 5 minutes at 37° C. The cells were separated into single cells by pipetting with a Pipetman (p1000), and collected in a 15 mL centrifuge tube. Blood cell differentiation medium was added to stop the reaction, and after centrifugation and removal of the supernatant, the cells were suspended in the necessary medium and analyzed.
as §2
Taking cell surface markers as an evaluation standard, KhES3 and H1 cells were used to investigate what changes are seen in the occurrence of CD56+APJ+ cells due to interventions in the initial step. […] For the added concentrations of each factor, the maximum concentration was determined with reference to previous reports, and this was then diluted to investigate concentration (Inman, G. J. et al., Mol. Pharmacol. 62, 65-74 (2002); Xu, R.-H. et al., Nat Meth 2, 185-190 (2005); Huang, S.-M. A. et al., Nature 461, 614-620 (2009)).

Molecule | percentage occurrence of blood cells (CD43+) on day 10 (KhES3 and H1 cells [1]) | occurrence of CD56+APJ+ mesodermal cells on day 4 (KhES3 and H1 cells [2])
bFGF: basic fibroblast growth factor | tended to be better | –
Oc1nc(-c2ccc(C(F)(F)F)cc2)nc2c1CSCC2 [XAV939] | – | reduction in CD56+APJ+ cells was confirmed; also recorded: tended to decrease
NC(=O)c1ccc(-c2nc(-c3ccc4c(c3)OCO4)c(-c3ccccn3)[nH]2)cc1 [SB431542] | increased; also recorded: significantly improved | sharp drop in the ratio of CD56+APJ+ cells at the low concentration point; also recorded: significant decrease in the mesodermal cell population
B1 | – | drop in CD56+APJ+ cells was confirmed, but the effect was limited; also recorded: decrease in the mesodermal cell population
